Reference: patent US20220267300A1 (NodThera Limited, priority 2019, published 2022)

tested on: IL-1β release upon NLRP3 activation in peripheral blood mononuclear cells (PBMC); test: PBMC IC50 determination assay (inhibition of IL-1β release); assay type: cell-based; settings: Homo sapiens; IL-1β release from LPS-primed PBMC stimulated with ATP (5 mM) or nigericin (10 μM); ELISA or HTRF; corresponding sodium salts evaluated
Method: The compounds of the present disclosure were tested for their inhibitory activity against IL-1β release upon NLRP3 activation in peripheral blood mononuclear cells (PBMC).
Protocol A. PBMC were isolated from buffy coats by density gradient centrifugation on Histopaque-1077 (Sigma, cat no. 10771). Isolated cells were seeded into the wells of a 96-well plate and incubated for 3 h with lipopolysaccharide (LPS). Following medium exchange, the compounds of the present disclosure were added (a single compound per well) and the cells were incubated for 30 min. Next, the cells were stimulated either with ATP (5 mM) or nigericin (10 μM) for 1 h and the cell culture media from the wells were collected for further analysis.
The release of IL-1β into the media was determined by a quantitative detection of IL-1β in the media using an IL-1β enzyme-linked immunosorbent assay (ELISA) Ready-SET-Go!, eBioscience cat. No. 88-7261-88. Briefly, in a first step, high affinity binding plates (Corning, Costar 9018 or NUNC Maxisorp Cat No. 44-2404) were coated overnight at 4° C. with specific capture antibody included in the kit (anti-human IL-1β ref. 14-7018-68). Subsequently, plates were blocked with blocking buffer for 1 h at room temperature (rt) and after washing with a buffer (PBS with 0.05% Tween-20) incubated with protein standard and culture media. After 2 h of incubation at rt, plates were washed and incubated with biotinylated detection antibody included in the kit (anti-human IL-1β Biotin ref. 33-7110-68) for 1 h at rt. Plates were washed and incubated with HRP-streptavidin for 30 min at rt and washed again. The signal was developed after addition of 3,3′,5,5′-tetramethylbenzidine-peroxidase (TMB) until colour appeared and the reaction was stopped by 2 M H2SO4. A microplate spectrophotometer (BioTek) was used to detect signals with 450 nm. The detection range of IL-1β ELISA was 2-150 ng/ml.
Protocol B. PBMC were isolated from buffy coats by density gradient centrifugation on Histopaque-1077 (Sigma, cat no. 10771). Isolated cells were seeded into the wells (280,000 cells/well) of a 96-well plate and incubated for 3 h with lipopolysaccharide (LPS, 1 μg/ml diluted 1000× from a 1 mg/ml stock solution). The compounds of the present disclosure were added (a single compound per well) and the cells were incubated for 30 min. Next, the cells were stimulated with ATP (5 mM final concentration diluted 20× from a 100 mM stock solution) for 1 h and the cell culture media from the wells were collected for further analysis.
The release of IL-1β into the media was determined by quantitative detection of IL-1β in the media using HTRF®, CisBio cat. No. 62HIL1BPEH. Briefly, cell culture supernatant were dispensed directly into the assay plate containing antibodies labelled with the HTRF® donor and acceptor. A microplate spectrophotometer (BMG) was used to detect signals at 655 nm and 620 nm. The detection range of IL-1β HTRF® was 39-6500 pg/ml.

Row | SMILES | IC50 [µM]
1 | CC(C)c1cc(CC(=O)NS(=O)(=O)N(CC2CCCO2)c2cnn(C)c2)cc(C(C)C)c1 (centres unmarked) [Example 38] | 10 to 50
2 | CC(C)c1cccc(CC(=O)NS(=O)(=O)N(c2cnn(C)c2)C2CCCN(C)C2)c1 (centres unmarked) [Example 53] | ≥ 50
3 | CN1CCC[C@H]1CN(c1cnn(C)c1)S(=O)(=O)NC(=O)Cc1cc(Cl)cc(C(C)(C)C)c1 (stereo in doubt) [Example 56] | ≥ 50
4 | CN1CCCC(N(c2cnn(C)c2)S(=O)(=O)NC(=O)Cc2c3c(cc4c2CCC4)CCC3)C1 (centres unmarked) [Example 17, 2-(1,2,3,5,6,7-Hexahydro-s-indacen-4-yl)-N-[(1-methyl-1H-pyrazol-4-yl)(1-methylpiperidin-3-yl)sulfamoyl]acetamide] | < 1
5 | CCc1cc(CC(=O)NS(=O)(=O)N(c2cnn(C)c2)C2CCCN(C)C2)cc(C(F)(F)F)c1 (centres unmarked) [Example 16, 2-[3-Ethyl-5-(trifluoromethyl)phenyl]-N-[(1-methyl-1H-pyrazol-4-yl)(1-methylpiperidin-3-yl)sulfamoyl]acetamide] | 3 to 10
6 | CC(C)c1cc(CC(=O)NS(=O)(=O)N(C[C@H]2C[C@@H](F)CN2C)c2cnn(C)c2)cc(C(C)C)c1 [Example 39] | ≥ 50
7 | CC(C)c1cc(CC(=O)N=S(N)(=O)N(c2cnn(C)c2)C2CCCN(C)C2)cc(C(C)C)c1 (centres unmarked) [Example 41] | 3 to 10
8 | Cn1cc(N(CCNC(=O)OCc2ccccc2)S(=O)(=O)NC(=O)Cc2c3c(cc4c2CCC4)CCC3)cn1 [Example 21] | 3 to 10
9 | Cn1cc(N(CCNCC(F)F)S(=O)(=O)NC(=O)Cc2c3c(cc4c2CCC4)CCC3)cn1 [Example 24, N-({2-[(2,2-Difluoroethyl)amino]ethyl}(1-methyl-1H-pyrazol-4-yl)sulfamoyl)-2-(1,2,3,5,6,7-hexahydro-s-indacen-4-yl)acetamide] | < 1
10 | CC(C)c1cc(CC(=O)NS(=O)(=O)N(C[C@@H]2CCCN2C)c2cnn(C)c2)cc(C(C)C)c1F [Example 9, 2-[4-Fluoro-3,5-bis(propan-2-yl)phenyl]-N-[(1-methyl-1H-pyrazol-4-yl)({[(2S)-1-methylpyrrolidin-2-yl]methyl})sulfamoyl]acetamide] | 10 to 50
11 | CC(C)c1cc(CC(=O)NS(=O)(=O)N(C[C@@H]2CCCN2C)c2cnn(C)c2)cc(C(F)(F)F)c1 [Example 10, N-[(1-Methyl-1H-pyrazol-4-yl)({[(2S)-1-methylpyrrolidin-2-yl]methyl})-sulfamoyl]-2-[3-(propan-2-yl)-5-(trifluoromethyl)phenyl]acetamide] | 3 to 10
12 | CC(=O)N(C)CCN(c1cnn(C)c1)S(=O)(=O)NC(=O)Cc1c2c(cc3c1CCC3)CCC2 [Example 26, 2-(1,2,3,5,6,7-Hexahydro-s-indacen-4-yl)-N-[(1-methyl-1H-pyrazol-4-yl)[2-(N-methylacetamido)ethyl]sulfamoyl]acetamide] | 3 to 10
13 | Cn1cc(N(CCN)S(=O)(=O)NC(=O)Cc2c3c(cc4c2CCC4)CCC3)cn1 [Example 22, N-[(2-Aminoethyl)(1-methyl-1H-pyrazol-4-yl)sulfamoyl]-2-(1,2,3,5,6,7-hexahydro-s-indacen-4-yl)acetamide] | 10 to 50
14 | CC(C)c1cc(CC(=O)NS(=O)(=O)N(C[C@@H]2CCCN2C)c2cnn(C)c2)cc(C(C)C)c1Cl [Example 55] | 10 to 50
15 | Cc1cc(C)cc(CC(=O)NS(=O)(=O)N(c2cnn(C)c2)C2CCCN(C)C2)c1 (centres unmarked) [Example 32] | ≥ 50
16 | CN(C)CCN(c1cnn(C)c1)S(=O)(=O)NC(=O)Cc1c2c(cc3c1CCC3)CCC2 [Example 18, N-{[2-(Dimethylamino)ethyl](1-methyl-1H-pyrazol-4-yl)sulfamoyl}-2-(1,2,3,5,6,7-hexahydro-s-indacen-4-yl)acetamide] | 1 to 3

Row | SMILES | IC50 [µM]
17 | CN1CCCC(N(c2cnn(C)c2)S(=O)(=O)NC(=O)Cc2cc(Cl)cc(Cl)c2)C1 (centres unmarked) [Example 33] | 10 to 50
18 | CN(CCN(c1cnn(C)c1)S(=O)(=O)NC(=O)Cc1c2c(cc3c1CCC3)CCC2)C(=O)OCc1ccccc1 [Example 25, Benzyl N-[2-({[2-(1,2,3,5,6,7-hexahydro-s-indacen-4-yl)acetamido]sulfonyl}(1-methyl-1H-pyrazol-4-yl)amino)ethyl]-N-methylcarbamate] | 3 to 10
19 | CN1CCC[C@H]1CN(c1cnn(C)c1)S(=O)(=O)NC(=O)Cc1ccc(C(F)(F)F)cc1Cl [Example 37] | ≥ 50
20 | CN1CCCC(N(c2cnn(C)c2)S(=O)(=O)NC(=O)Cc2cc(C(F)(F)F)cc(C(F)(F)F)c2)C1 (centres unmarked) [Example 6, 2-[3,5-Bis(trifluoromethyl)phenyl]-N-[(1-methyl-1H-pyrazol-4-yl)(1-methylpiperidin-3-yl)sulfamoyl]acetamide] | < 1
21 | CC(C)c1ccc(C(C)C)c(CC(=O)NS(=O)(=O)N(C[C@@H]2CCCN2C)c2cnn(C)c2)c1 [Example 50] | ≥ 50
22 | CN1CCC[C@H]1CN(c1cnn(C)c1)S(=O)(=O)NC(=O)Cc1cc(C(C)(C)C)cc(C(C)(C)C)c1 [Example 52] | ≥ 50
23 | CC(C)c1cc(Cl)cc(CC(=O)NS(=O)(=O)N(C[C@@H]2CCCN2C)c2cnn(C)c2)c1 [Example 8, 2-[3-Chloro-5-(propan-2-yl)phenyl]-N-[(1-methyl-1H-pyrazol-4-yl)({[(2S)-1-methylpyrrolidin-2-yl]methyl})sulfamoyl]acetamide] | 1 to 3
24 | CC(C)c1cc(F)cc(C(C)C)c1CC(=O)NS(=O)(=O)N(c1cnn(C)c1)C1CCN(C)CC1 [Example 31] | ≥ 50
25 | CN1CCCC(N(c2cnn(C)c2)S(=O)(=O)NC(=O)Cc2ccc3c(c2)C(C)(C)CO3)C1 (centres unmarked) [Example 49] | ≥ 50
26 | CC(C)c1cc(F)cc(C(C)C)c1CC(=O)NS(=O)(=O)N(c1cnn(C)c1)C1CCOCC1 [Example 30] | ≥ 50
27 | Cn1cc(N(C2CCCN(C(=O)OCc3ccccc3)C2)S(=O)(=O)NC(=O)Cc2c3c(cc4c2CCC4)CCC3)cn1 (centres unmarked) [Example 19, Benzyl 3-({[2-(1,2,3,5,6,7-hexahydro-s-indacen-4-yl)acetamido]sulfonyl}(1-methyl-1H-pyrazol-4-yl)amino)piperidine-1-carboxylate] | 3 to 10
28 | Cc1ccc(C(C)C)cc1CC(=O)NS(=O)(=O)N(c1cnn(C)c1)C1CCCN(C)C1 (centres unmarked) [Example 48] | ≥ 50
29 | CC(=O)NCCN(c1cnn(C)c1)S(=O)(=O)NC(=O)Cc1c2c(cc3c1CCC3)CCC2 [Example 23, N-[(2-Acetamidoethyl)(1-methyl-1H-pyrazol-4-yl)sulfamoyl]-2-(1,2,3,5,6,7-hexahydro-s-indacen-4-yl)acetamide] | 10 to 50
30 | CC(C)c1cc(Cl)cc(C(C)C)c1CC(=O)NS(=O)(=O)N(C[C@@H]1CCCN1C)c1cnn(C)c1 [Example 40] | ≥ 50
31 | Cn1cc(N(C2CCCNC2)S(=O)(=O)NC(=O)Cc2c3c(cc4c2CCC4)CCC3)cn1 (centres unmarked) [Example 20, 2-(1,2,3,5,6,7-Hexahydro-s-indacen-4-yl)-N-[(1-methyl-1H-pyrazol-4-yl)(piperidin-3-yl)sulfamoyl]acetamide] | 1 to 3
32 | CC(C)c1cc(CC(=O)N=S(N)(=O)N(c2cnn(C)c2)C2CCCN(C)C2)c(C(C)C)s1 (centres unmarked) [Example 15, N-{Amino[(1-methyl-1H-pyrazol-4-yl)(1-methylpiperidin-3-yl)amino]oxo-lambda6-sulfanylidene}-2-[2,5-bis(propan-2-yl)thiophen-3-yl]acetamide] | 10 to 50
